Results on 54 compounds are retold here after US11319304B2, “Pyridine quinoline compounds as MGLUR4 allosteric potentiators, compositions, and methods of treating neurological dysfunction” (Vanderbilt University, priority 2017, dated 2022).

In the experiment the target is mGluR4 (Homo sapiens, UniProt Q14833). Put plainly: mGlu4 PAM potentiation assay, CHO cells transfected with human mGluR4, Ca2+-sensitive dye fluorescence. The experiment is classed as cell-based. Here is the method: The disclosed compounds and compositions can be evaluated for their ability to act as a potentiator of metabotropic glutamate receptor activity, in particular mGluR4 activity, by any suitable known methodology known in the art. For example, Chinese Hamster Ovary (CHO) cells transfected with human mGluR4 or HEK cells co-transfected with rat mGluR4 and the G-protein regulated Inwardly Rectifying Potassium channel (GIRK) were plated in clear bottom, assay plates for assay in a Hamamatsu FDSS Fluorometric Plate Reader. The cells were loaded with either a Ca2+-sensitive fluorescent dye or the thallium responsive dye and the plates were washed and placed into a suitable kinetic plate reader. For human mGluR4 assays, a fluorescence baseline was established for 3-5 seconds, the disclosed compounds were then added to the cells, and the response in cells was measured. Approximately two and a half minutes later, a concentration of mGluR4 orthosteric agonist (e.g. glutamate, L-AP4, or L-SOP) eliciting approximately 20% (EC20) of the maximal agonist response was added to the cells, and the response was measured. Two minutes later, a concentration of mGluR4 agonist (e.g. glutamate, L-AP4, or L-SOP) eliciting 80% (EC80) of the maximal agonist response was added to the cells, and the response was measured. For rat mGluR4/GIRK experiments, a baseline was established for approximately five seconds, disclosed compounds were added, and either an EC20 or EC80 concentration of agonist was added approximately two and one half minutes later. Potentiation or antagonism of the agonist response of mGluR4 by the disclosed compounds was observed as an increase or decrease in response to the EC20 concentration of agonist in the presence of compound compared to the response to agonist in the absence of compound. Similarly, potentiation or antagonism of the agonist response of mGluR4 by the disclosed Compounds was observed as an increase or decrease in response to the EC80 concentration of agonist in the presence of compound compared to the response to agonist in the absence of compound.
Sequence of mGluR4 (Q14833 33-912 limits assumed): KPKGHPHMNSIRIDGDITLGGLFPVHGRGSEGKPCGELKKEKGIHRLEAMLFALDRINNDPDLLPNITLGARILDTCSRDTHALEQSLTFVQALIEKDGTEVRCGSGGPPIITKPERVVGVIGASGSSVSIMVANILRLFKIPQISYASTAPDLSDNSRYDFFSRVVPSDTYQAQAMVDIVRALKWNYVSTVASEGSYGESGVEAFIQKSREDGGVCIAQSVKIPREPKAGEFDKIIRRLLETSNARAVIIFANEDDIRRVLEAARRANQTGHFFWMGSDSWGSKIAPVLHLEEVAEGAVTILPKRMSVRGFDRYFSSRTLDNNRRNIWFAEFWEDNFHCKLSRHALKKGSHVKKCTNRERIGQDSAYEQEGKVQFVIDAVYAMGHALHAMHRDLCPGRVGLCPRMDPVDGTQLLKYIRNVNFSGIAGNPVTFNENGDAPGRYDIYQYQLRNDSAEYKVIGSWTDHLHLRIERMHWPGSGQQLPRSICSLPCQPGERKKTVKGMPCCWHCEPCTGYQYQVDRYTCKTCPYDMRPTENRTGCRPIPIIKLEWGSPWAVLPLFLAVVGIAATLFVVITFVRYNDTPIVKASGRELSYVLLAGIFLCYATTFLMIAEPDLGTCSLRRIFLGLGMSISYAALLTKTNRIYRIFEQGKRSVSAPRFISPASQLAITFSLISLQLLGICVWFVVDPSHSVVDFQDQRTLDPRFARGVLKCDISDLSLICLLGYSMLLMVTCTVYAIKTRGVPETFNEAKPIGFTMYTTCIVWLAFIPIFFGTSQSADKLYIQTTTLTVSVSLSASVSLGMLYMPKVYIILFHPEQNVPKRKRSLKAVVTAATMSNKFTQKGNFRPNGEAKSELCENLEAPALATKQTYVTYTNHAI
The above described assay operated in two modes. In the first mode, a range of concentrations of the disclosed compounds are added to cells, followed by a single fixed concentration of agonist. If the compound acts as a potentiatior, an EC50 value for potentiation and a maximum extent of potentiation by the compound at this concentration of agonist is determined by non-linear curve fitting. If the compound acts as an antagonist, an IC50 value is determined by non-linear curve fitting. In the second mode, several fixed concentrations of the disclosed compounds are added to various wells on a plate, followed by a range in concentrations of agonist for each concentration of disclosed compound. The EC50 values for the agonist at each concentration of compound are determined by non-linear curve fitting. A decrease in the EC50 value of the agonist with increasing concentrations of the sample compound (a leftward shift of the agonist concentration-response curve) is an indication of the degree of mGluR4 potentiation at a given concentration of the sample compound. A decrease in the maximal response of the agonist with increasing concentrations of the sample compounds, with or without a rightward shift in agonist potency, is an indication of the degree of antagonism at mGluR4. The second mode also indicates whether the sample compounds also affect the maximum response to mGluR4 to agonists.
On to `Nc1cccnc1C(=O)Nc1cc(F)c2c(OCC3CCOC3)nccc2c1` (stereo not drawn) [Compound 79], for which the EC50 came out at 48.2 nM.
Take `Nc1cccnc1C(=O)Nc1ccc2c(OC3CCS(=O)(=O)C3)nccc2c1` (stereo not drawn) [Compound 55]: the EC50 worked out at 634 nM.
For `CC1(C)CC(Oc2nccc3cc(NC(=O)c4ccc(F)cn4)cc(F)c23)CCO1` (stereo not drawn) [Compound 102] the value was 142 nM; for `CC1(C)CC(COc2nccc3cc(NC(=O)c4ncccc4N)ccc23)CCO1` (stereo not drawn) [Compound 35], 227 nM.
Consider `O=C(Nc1ccc2c(OCC3CCOC3)nccc2c1)c1nc(Cl)ccc1F` (stereo not drawn) [Compound 89], for which the EC50 turned out to be 822 nM.
With `O=C(Nc1ccc2c(O[C@H]3CCOC3)nccc2c1)c1ncccc1O` [Compound 11], the EC50 came to 883 nM.
For the compound `CC1CC(COc2nccc3cc(NC(=O)c4ccccn4)ccc23)CCO1` (stereo not drawn) [Compound 37], the 50% effective concentration (EC50) worked out at 88.6 nM.
In the case of `O=C(Nc1ccc2c(OCC3CCOC3)nccc2c1)c1ncc(F)cc1Cl` (stereo not drawn) [Compound 88], the EC50 turned out to be 910 nM.
For `CC1(C)CC(Oc2nccc3cc(NC(=O)c4ncccc4F)cc(F)c23)CCO1` (stereo not drawn) [Compound 101] the value was 120 nM.
In the case of `O=C(Nc1ccc2c(OC3CCOCC3)nccc2c1)c1ncccc1O` [Compound 14], the EC50 was determined as 331 nM.
For `O=C(Nc1cnc2c(OCC3CCOCC3)nccc2c1)c1ccc(F)cn1` [Compound 122] the value was 454 nM.
Turning to `O=C(Nc1ccc2c(OCC3CCOC3)nccc2c1)c1ncccc1F` (stereo not drawn) [Compound 18], the EC50 turned out to be 262 nM.
`CC1(C)COCCC1Nc1nccc2cc(NC(=O)c3ncccc3N)ccc12` (stereo not drawn) [Compound 77]: the EC50 was found to be 922 nM.
In the case of `O=C(Nc1ccc2c(OC3CCSC3)nccc2c1)c1ccccn1` (stereo not drawn) [Compound 54], the EC50 stood at 915 nM.
As to `O=C(Nc1cc(F)c2c(OCC3CCOCC3)nccc2c1)c1ncccc1C(F)(F)F` [Compound 98], the EC50 was determined as 978 nM.
As to `Nc1cccnc1C(=O)Nc1ccc2c(O[C@H]3CCOC3)ncc(F)c2c1` [Compound 71], the EC50 is 493 nM.
On to `O=C(Nc1cc(F)c2c(OCC3COCCO3)nccc2c1)c1ncccc1F` (stereo not drawn) [Compound 92], for which the EC50 is 152 nM.
As for `O=C(Nc1cc(F)c2c(OCC3CCOC3)nccc2c1)c1cccc(F)n1` (stereo not drawn) [Compound 82], the EC50 came out at 129 nM.
In the case of `CC1(C)CC(Oc2nccc3cc(NC(=O)c4ncccc4N)cc(F)c23)CCO1` (stereo not drawn) [Compound 106], the EC50 is 127 nM.
For `O=C(Nc1ccc2c(OCC3CCOC3)nccc2c1)c1nccs1` (stereo not drawn) [Compound 56] the value was 210 nM.
As for `O=C(Nc1ccc2c(OCC3CCOC3)nccc2c1)c1ncccc1Cl` (stereo not drawn) [Compound 19], the EC50 came out at 339 nM.
For `O=C(Nc1cc(F)c2c(OCC3CCOCC3)nccc2c1)c1ccc(F)cn1` [Compound 97] the value was 52.1 nM.
Regarding `O=C(Nc1ccc2c(OCc3cccnc3)nccc2c1)c1ccc(F)cn1` [Compound 114], the EC50 stood at 228 nM.
For `CC1(C)CC(Oc2nccc3cc(NC(=O)c4ccccn4)cc(F)c23)CCO1` (stereo not drawn) [Compound 100] the value was 70.8 nM; for `Nc1cccnc1C(=O)Nc1ccc2c(OCC3CCOC3)nccc2c1` (stereo not drawn) [Compound 16], 71.4 nM.
For `O=C(Nc1cc(F)c2c(OCC3CCOCC3)nccc2c1)c1ncccc1F` [Compound 96] the value was 102 nM; for `O=C(Nc1ccc2c(OCC3CCOC3)nccc2c1)c1cccc(Cl)n1` (stereo not drawn) [Compound 86], 619 nM; for `O=C(Nc1ccc2c(NC3CC(F)(F)C3)nccc2c1)c1ccccn1` [Compound 75], 715 nM.
For `CC1CC(COc2nccc3cc(NC(=O)c4ncccc4N)ccc23)CCO1` (stereo not drawn) [Compound 38] the value was 135 nM; for `Nc1cccnc1C(=O)Nc1cc(F)c2c(OCC3COCCO3)nccc2c1` (stereo not drawn) [Compound 91], 94 nM; for `CC1(C)CC(Oc2nccc3cc(NC(=O)c4ccccn4)ccc23)CCO1` (stereo not drawn) [Compound 23], 146 nM.
In the case of `O=C(Nc1ccc2c(OCC3CCOC3)nccc2c1)c1ccc(Cl)cn1` (stereo not drawn) [Compound 85], the half-maximal effective concentration (EC50) is 615 nM.
For the compound `O=C(Nc1cc(F)c2c(OCC3CCOCC3)nccc2c1)c1ccccn1` [Compound 94], the EC50 is 37.7 nM.
Turning to `CC1CC(Oc2nccc3cc(NC(=O)c4ncccc4O)ccc23)CCO1` (stereo not drawn) [Compound 45], the EC50 was determined as 447 nM.
`CO[C@H](C)COc1nccc2cc(NC(=O)c3ncccc3N)ccc12` [Compound 7]: the EC50 amounted to 152 nM.
On to `O=C(Nc1ccc2c(OCC3CCOCC3)nccc2c1)c1ccc(F)cn1` [Compound 105], for which the EC50 was 34.1 nM.
In the case of `CC(C)(C)OCCOc1nccc2cc(NC(=O)c3ccccn3)ccc12` [Compound 28], the EC50 is 419 nM.
Take `O=C(Nc1ccc2c(OCC3CCOC3)nccc2c1)c1ncc(F)cc1F` (stereo not drawn) [Compound 73]: the EC50 worked out at 992 nM.
Turning to `O=C(Nc1ccc2c(OCC3CCOC3)nccc2c1)c1cccc(F)n1` (stereo not drawn) [Compound 87], the EC50 turned out to be 183 nM.
For `O=C(Nc1ccc2c(OC3CCOCC3F)nccc2c1)c1ncccc1O` (stereo not drawn) [Compound 42] the value was 92.2 nM; for `O=C(Nc1ccc2c(OC3CCOCC3F)nccc2c1)c1ccccn1` (stereo not drawn) [Compound 40], 183 nM.
For the compound `COCCOc1nccc2cc(NC(=O)c3ccccn3)ccc12` [Compound 20], the 50% effective concentration (EC50) was found to be 739 nM.
For `O=C(Nc1ccc2c(OCc3ccncc3)nccc2c1)c1ccc(F)cn1` [Compound 115] the value was 100 nM; for `Nc1cccnc1C(=O)Nc1ccc2c(OCC3CCCCO3)nccc2c1` (stereo not drawn) [Compound 9], 242 nM.
For `CC1(C)CC(Oc2nccc3cc(NC(=O)c4ncccc4N)ccc23)CCO1` (stereo not drawn) [Compound 24] the value was 310 nM.
For `Nc1cccnc1C(=O)Nc1ccc2c(OCC3COCCO3)nccc2c1` (stereo not drawn) [Compound 116], the EC50 is 63.7 nM.
`COCCOc1nccc2cc(NC(=O)c3ncccc3O)ccc12` [Compound 22]: the EC50 is 502 nM.
With `CC1(C)CC(Nc2nccc3cc(NC(=O)c4ncccc4N)ccc23)CCO1` (stereo not drawn) [Compound 76], the EC50 is 616 nM.
For `O=C(Nc1ccc2c(OCC3CCOCC3)nccc2c1)c1cccc(F)n1` [Compound 109] the value was 91.5 nM; for `Nc1nccnc1C(=O)Nc1ccc2c(OCC3CCOC3)nccc2c1` (stereo not drawn) [Compound 99], 83.1 nM; for `O=C(Nc1ccc2c(OCC3COCCO3)ncc(F)c2c1)c1ncccc1O` (stereo not drawn) [Compound 70], 710 nM.
Regarding `CC1CC(Oc2nccc3cc(NC(=O)c4ncccc4N)ccc23)CCO1` (stereo not drawn) [Compound 44], the EC50 was found to be 804 nM.
As to `CCOCCOc1nccc2cc(NC(=O)c3ccccn3)ccc12` [Compound 3], the EC50 came to 436 nM.
Consider `O=C(Nc1ccc2c(OC3CCOCC3)nccc2c1)c1ccccn1` [Compound 12], for which the 50% effective concentration (EC50) came out at 411 nM.

What is called EC50 is the concentration giving half of the maximal effect.
